# Assay results: patent publication US20210403485A1, “PYRAZOLOPYRIMIDINE DERIVATIVE AS SELECTIVE TRK INHIBITOR” (SHANDONG LUYE PHARMACEUTICAL CO., LTD., priority 2018, published 2021)
# pIC50: −log10 of the molar value.
# What was measured:
# [1] = target: T1, ALK (Homo sapiens, UniProt Q9UM73); experiment: Kinase inhibitory activity (33P-ATP, filtration-binding method, Reaction Biology Corp.); type: biochemical
# T1 construct: purchased Reaction Biology Corp
# Procedure: The mixture was incubated at room temperature for 20 minutes, added with ^33P-ATP at a certain concentration to start the reaction, and then incubated at room temperature for 120 minutes. Finally, the radioactivity of the reactant was detected by the filtration-binding method. The final kinase activity was expressed as the ratio of the remaining kinase activity in the test sample to the kinase activity of the DMSO control. The dose-response curves were fitted and IC50 values were calculated by GraphPad software.
# [2] = target: T2, Ba/F3 SLC34A2-ROS1-WT (Homo sapiens, UniProt P08922); experiment: Inhibitory activity against cell proliferation (CellTiter-Glo, 72 hours); type: cell-based; details: read-out: Half maximal inhibitory concentration IC50 of cells, Ba/F3 SLC34A2-ROS1-WT
# T2 construct: fused on or other part: N-terminal part of SLC34A2 as fusion partner (part of the key); O95436 (Sodium-dependent phosphate transport protein 2B)
# T2 sequence (P08922 whole entry, stated change not applied, the tested form may be a part): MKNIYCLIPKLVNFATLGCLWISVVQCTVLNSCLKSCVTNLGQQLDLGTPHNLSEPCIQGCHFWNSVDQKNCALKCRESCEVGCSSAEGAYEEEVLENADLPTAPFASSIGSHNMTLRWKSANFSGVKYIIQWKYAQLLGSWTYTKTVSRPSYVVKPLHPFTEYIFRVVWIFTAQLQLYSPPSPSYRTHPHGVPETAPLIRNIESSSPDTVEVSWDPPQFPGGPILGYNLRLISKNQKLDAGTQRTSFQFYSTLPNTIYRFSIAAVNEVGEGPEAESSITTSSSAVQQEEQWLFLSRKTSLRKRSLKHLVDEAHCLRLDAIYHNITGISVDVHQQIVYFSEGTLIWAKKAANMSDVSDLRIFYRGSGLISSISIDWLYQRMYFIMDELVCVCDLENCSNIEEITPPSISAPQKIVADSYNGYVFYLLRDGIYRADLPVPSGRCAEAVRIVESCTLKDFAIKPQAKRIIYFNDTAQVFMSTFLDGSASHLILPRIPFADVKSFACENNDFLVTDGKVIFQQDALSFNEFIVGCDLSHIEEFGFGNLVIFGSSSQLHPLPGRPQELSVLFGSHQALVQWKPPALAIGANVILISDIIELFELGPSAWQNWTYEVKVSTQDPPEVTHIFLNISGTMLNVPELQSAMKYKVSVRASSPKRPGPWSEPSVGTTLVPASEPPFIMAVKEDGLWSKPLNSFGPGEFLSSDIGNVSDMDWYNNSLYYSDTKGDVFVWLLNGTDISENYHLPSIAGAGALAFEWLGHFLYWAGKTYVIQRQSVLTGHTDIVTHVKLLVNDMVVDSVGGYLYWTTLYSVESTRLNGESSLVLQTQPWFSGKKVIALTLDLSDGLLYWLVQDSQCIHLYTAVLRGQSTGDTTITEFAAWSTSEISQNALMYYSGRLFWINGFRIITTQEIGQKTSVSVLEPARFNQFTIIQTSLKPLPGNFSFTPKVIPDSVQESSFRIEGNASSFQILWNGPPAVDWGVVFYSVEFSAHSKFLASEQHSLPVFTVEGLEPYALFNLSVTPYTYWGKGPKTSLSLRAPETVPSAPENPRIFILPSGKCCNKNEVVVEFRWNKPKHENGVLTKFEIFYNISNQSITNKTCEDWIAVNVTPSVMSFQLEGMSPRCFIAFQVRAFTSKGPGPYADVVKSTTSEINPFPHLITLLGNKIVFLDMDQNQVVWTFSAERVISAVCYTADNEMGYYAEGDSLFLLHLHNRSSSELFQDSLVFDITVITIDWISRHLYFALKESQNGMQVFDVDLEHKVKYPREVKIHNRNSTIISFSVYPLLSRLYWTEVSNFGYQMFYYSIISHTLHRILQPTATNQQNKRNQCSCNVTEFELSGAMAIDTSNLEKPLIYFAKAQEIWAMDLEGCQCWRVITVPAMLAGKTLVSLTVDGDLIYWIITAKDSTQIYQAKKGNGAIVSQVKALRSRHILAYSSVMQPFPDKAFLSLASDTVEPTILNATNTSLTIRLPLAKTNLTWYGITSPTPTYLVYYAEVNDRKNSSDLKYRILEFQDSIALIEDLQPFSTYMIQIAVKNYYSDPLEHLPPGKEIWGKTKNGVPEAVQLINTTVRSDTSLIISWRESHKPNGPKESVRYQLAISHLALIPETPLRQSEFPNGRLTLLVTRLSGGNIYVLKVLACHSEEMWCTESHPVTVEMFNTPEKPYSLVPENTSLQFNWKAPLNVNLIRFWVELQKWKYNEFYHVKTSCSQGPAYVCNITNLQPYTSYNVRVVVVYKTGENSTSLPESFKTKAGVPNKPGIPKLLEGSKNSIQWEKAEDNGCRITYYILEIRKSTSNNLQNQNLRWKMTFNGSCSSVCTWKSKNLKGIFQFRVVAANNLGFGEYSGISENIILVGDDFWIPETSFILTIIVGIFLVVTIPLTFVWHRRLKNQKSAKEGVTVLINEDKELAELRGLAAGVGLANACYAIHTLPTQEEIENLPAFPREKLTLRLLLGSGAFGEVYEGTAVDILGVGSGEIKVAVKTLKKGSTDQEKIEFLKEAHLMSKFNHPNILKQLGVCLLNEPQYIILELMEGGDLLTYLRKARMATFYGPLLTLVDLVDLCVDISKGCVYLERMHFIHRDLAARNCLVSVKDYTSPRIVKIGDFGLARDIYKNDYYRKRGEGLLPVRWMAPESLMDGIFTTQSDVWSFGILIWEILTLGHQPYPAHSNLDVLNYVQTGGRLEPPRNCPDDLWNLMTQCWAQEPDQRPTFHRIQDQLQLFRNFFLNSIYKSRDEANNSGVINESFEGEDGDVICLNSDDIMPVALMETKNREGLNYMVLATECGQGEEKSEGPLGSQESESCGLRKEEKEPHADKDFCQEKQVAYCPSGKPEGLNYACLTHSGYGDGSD
# Procedure: (§1) Adenosine Triphosphate (ATP) is an energy carrier commonly used in various life activities in nature, and is the minimum unit for energy storage and transfer. The CellTiter-Glo™ cell viability assay kit uses luciferase as an assay agent, which requires the involvement of ATP in luminescence. The CellTiter-Glo™ reagent is added into cell culture medium to measure the luminescence value. The luminescence signal is directly proportional to the amount of ATP in the system, and the ATP is positively correlated with the number of viable cells. Therefore, the proliferation of cells can be detected by detecting the ATP content using the CellTiter-Glo kit.
# (§2) a) Cells in the logarithmic growth phase were collected and counted using a […]. The cell viability was detected by the trypan blue exclusion method, and the cell viability was kept over 90%.
# (§3) b) The cell concentration was adjusted; 90 μL of the cell suspension was added to a 96-well plate.
# (§4) a) A 10-fold compound solution was prepared, with the highest concentration being 10 μM (a total of 9 concentrations, 3-fold dilution). 10 μL of compound solution was added to each well of a 96-well plate inoculated with cells, and three duplicate wells were set for each compound concentration.
# (§5) a) The CTG reagent was thawed and the cell plate was equilibrated to room temperature for 30 minutes.
# (§6) b) An equal volume of CTG solution was added to each well.
# (§7) c) The plate was shaken on an orbital shaker for 5 minutes to lyse the cells.
# (§8) d) The cell plate was placed at room temperature for 20 minutes to stabilize the luminescence signal.
# (§9) e) The luminescence value was read.
# (§10) The data were analyzed using GraphPad Prism 5.0 software, fitted with nonlinear S-curve regression to give dose-response curves, and IC50 values were calculated therefrom.
# [3] = target: T3, BaF3 ETV6-NTRK3-G623R (Homo sapiens, UniProt Q16288, G623R, cells depend on it); experiment: as above; type: cell-based; details: read-out: Half maximal inhibitory concentration IC50 of cells, BaF3 ETV6-NTRK3-G623R
# T3 construct: fused on or other part: N-terminal part of ETV6 (TEL) as fusion partner (part of the key); P41212 (Transcription factor ETV6)
# T3 sequence (Q16288 whole entry G623R, the tested form may be a part): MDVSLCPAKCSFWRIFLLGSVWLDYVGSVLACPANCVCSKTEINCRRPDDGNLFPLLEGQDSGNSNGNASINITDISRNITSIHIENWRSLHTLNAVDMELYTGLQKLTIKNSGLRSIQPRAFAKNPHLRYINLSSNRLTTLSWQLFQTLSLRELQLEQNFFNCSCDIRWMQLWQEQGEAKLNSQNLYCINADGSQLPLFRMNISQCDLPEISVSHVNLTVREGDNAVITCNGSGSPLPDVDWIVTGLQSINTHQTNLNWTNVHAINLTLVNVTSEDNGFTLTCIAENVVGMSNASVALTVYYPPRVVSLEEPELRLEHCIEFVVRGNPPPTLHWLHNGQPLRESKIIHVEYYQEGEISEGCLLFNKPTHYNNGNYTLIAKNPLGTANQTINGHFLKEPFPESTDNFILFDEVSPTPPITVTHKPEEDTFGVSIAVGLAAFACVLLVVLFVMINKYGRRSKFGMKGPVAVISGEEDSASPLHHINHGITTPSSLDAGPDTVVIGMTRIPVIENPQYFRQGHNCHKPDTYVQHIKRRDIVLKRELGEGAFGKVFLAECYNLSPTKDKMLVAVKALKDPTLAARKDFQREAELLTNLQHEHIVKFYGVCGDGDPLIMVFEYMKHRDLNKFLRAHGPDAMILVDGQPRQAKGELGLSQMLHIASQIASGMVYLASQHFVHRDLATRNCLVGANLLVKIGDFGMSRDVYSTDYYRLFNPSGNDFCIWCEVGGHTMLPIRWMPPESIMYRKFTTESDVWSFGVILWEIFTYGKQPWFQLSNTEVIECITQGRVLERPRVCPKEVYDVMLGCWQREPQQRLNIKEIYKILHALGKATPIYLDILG
# Procedure: as §1, with “kit. In this test, the cell lines used are Ba/F3 LMNA-NTRK1-WT, Ba/F3 LMNA-NTRK1-F589L, BaF3 LMNA-NTRK1-G595R, BaF3 LMNA-NTRK1-G667A, BaF3 ETV6-NTRK3-WT, BaF3 ETV6-NTRK3-G623R, and Ba/F3 SLC34A2-ROS1-WT stable cell strains, 5000 cells/well.” for “kit.”
# as §2, §3
# c) Cells in the 96-well plate were incubated overnight at 37° C. with 5% CO2 and 95% humidity.
# as §4
# b) The cells in the 96-well plate added with compound were incubated for 72 hours at 37° C. with 5% CO2 and 95% humidity, followed by the CTG (CellTiter-Glo) analysis.
# as §5, §6, §7, §8, §9, §10
# [4] = system: Ba/F3 ETV6-NTRK3-G623R cells; experiment: Efficacy test in animals: subcutaneous xenograft, intragastric administration; type: in vivo, nude mice; details: for TGI (tumor growth inhibition rate): day of dissection; for Tumor inhibition rate (by tumor weight) / Tumor weight: end of the test
# Procedure: Cells in the logarithmic growth phase were collected and resuspended in serum-free medium to a cell concentration of 2-4×10^7 cells/mL. An equal volume of matrigel was added to the cell suspension to achieve a final cell concentration of 1-2×10^7 cells/mL. 0.2 mL of tumor cell suspension was subcutaneously inoculated at the scapula of each nude mouse with the inoculation amount of 2-4×10^6 cells/mouse to prepare the animal models.
# [5] = Animal body weight and general observations, Ba/F3 ETV6-NTRK3-G623R tumor-bearing nude mice
# Procedure: The mice in groups were intragastrically administrated on the next day, and the animal body weight and the long and short diameters of the tumor were measured once every other day.
# T1 sequence (Q9UM73 19-1620): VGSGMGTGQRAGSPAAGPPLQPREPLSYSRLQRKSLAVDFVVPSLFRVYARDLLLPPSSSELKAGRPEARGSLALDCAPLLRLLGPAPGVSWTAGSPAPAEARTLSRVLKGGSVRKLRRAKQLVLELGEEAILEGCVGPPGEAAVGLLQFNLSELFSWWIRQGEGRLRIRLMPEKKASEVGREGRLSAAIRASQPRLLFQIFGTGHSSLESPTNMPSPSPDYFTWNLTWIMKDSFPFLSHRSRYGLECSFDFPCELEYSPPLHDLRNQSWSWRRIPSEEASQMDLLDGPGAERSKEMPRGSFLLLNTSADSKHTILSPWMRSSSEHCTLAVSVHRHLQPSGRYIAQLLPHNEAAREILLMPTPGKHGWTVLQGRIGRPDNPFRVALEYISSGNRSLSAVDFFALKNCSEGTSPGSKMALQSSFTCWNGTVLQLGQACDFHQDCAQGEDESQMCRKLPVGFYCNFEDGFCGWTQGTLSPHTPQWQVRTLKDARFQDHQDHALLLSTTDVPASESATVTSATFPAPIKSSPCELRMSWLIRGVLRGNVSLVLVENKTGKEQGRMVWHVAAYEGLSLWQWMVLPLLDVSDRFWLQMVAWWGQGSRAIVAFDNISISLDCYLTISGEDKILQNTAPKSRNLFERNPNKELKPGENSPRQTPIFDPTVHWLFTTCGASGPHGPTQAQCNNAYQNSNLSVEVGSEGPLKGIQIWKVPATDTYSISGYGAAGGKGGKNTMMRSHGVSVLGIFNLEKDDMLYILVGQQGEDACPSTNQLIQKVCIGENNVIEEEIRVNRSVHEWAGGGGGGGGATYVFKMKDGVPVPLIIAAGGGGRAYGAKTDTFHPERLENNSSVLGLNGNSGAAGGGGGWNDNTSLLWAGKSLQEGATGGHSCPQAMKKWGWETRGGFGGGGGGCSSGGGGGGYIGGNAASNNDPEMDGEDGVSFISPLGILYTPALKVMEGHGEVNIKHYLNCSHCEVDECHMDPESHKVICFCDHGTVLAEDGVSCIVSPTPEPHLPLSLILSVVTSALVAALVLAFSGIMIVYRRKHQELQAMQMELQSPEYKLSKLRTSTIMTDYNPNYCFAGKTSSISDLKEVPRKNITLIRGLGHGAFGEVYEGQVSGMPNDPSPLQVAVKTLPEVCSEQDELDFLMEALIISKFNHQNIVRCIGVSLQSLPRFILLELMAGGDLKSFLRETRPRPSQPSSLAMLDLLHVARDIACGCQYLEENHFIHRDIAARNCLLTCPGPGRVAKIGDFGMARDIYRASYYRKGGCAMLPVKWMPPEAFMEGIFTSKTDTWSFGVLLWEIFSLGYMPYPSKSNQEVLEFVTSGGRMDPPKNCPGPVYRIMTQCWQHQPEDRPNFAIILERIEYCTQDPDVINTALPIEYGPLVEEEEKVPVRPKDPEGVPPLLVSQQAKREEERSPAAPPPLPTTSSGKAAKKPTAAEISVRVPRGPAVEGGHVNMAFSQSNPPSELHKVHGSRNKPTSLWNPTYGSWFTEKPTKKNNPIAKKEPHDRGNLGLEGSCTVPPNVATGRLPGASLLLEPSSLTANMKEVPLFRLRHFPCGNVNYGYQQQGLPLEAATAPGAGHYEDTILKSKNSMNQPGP
structure (smiles),measurement,setting,value
"O=C1NC2(CC2)COc2ncc(F)cc2C2COCCN2c2ccn3ncc1c3n2 (single isomer, unassigned) [WX001B]",pIC50,[1],6.74
same,GI50,[2],64.2 nM
same,GI50,[3],2.3 nM
same,Inhibition of growth of subcutaneous xenografts,[4]; 2.5-20 mg/kg,in a dose-dependent manner
same,Relative tumor proliferation rate T/C,"[4]; Day 0, 2.5 mg/kg bid",100.00%
same,Tumor volume,"[4]; Day 0, 2.5 mg/kg bid",200.40 ± 33.16 mm^3
same,Relative tumor proliferation rate T/C,"[4]; Day 0, 5 mg/kg bid",100.00%
same,Tumor volume,"[4]; Day 0, 5 mg/kg bid",200.35 ± 32.62 mm^3
same,Relative tumor proliferation rate T/C,"[4]; Day 0, 10 mg/kg bid",100.00%
same,Tumor volume,"[4]; Day 0, 10 mg/kg bid",199.55 ± 34.92 mm^3
same,Relative tumor proliferation rate T/C,"[4]; Day 0, 20 mg/kg bid",100.00%
same,Tumor volume,"[4]; Day 0, 20 mg/kg bid",199.51 ± 34.71 mm^3
same,Relative tumor proliferation rate T/C,"[4]; Day 3, 2.5 mg/kg bid",64.91%
same,Tumor volume,"[4]; Day 3, 2.5 mg/kg bid",392.17 ± 91.44 mm^3
same,Relative tumor proliferation rate T/C,"[4]; Day 3, 5 mg/kg bid",56.84%
same,Tumor volume,"[4]; Day 3, 5 mg/kg bid",343.40 ± 96.52 mm^3
same,Relative tumor proliferation rate T/C,"[4]; Day 3, 10 mg/kg bid",35.78%
same,Tumor volume,"[4]; Day 3, 10 mg/kg bid",216.15 ± 52.64 mm^3
same,Relative tumor proliferation rate T/C,"[4]; Day 3, 20 mg/kg bid",32.65%
same,Tumor volume,"[4]; Day 3, 20 mg/kg bid",197.28 ± 52.49 mm^3
same,Relative tumor proliferation rate T/C,"[4]; Day 5, 2.5 mg/kg bid",42.80%
same,Tumor volume,"[4]; Day 5, 2.5 mg/kg bid",507.81 ± 127.36 mm^3
same,Relative tumor proliferation rate T/C,"[4]; Day 5, 5 mg/kg bid",32.50%
same,Tumor volume,"[4]; Day 5, 5 mg/kg bid",385.61 ± 63.66 mm^3
same,Relative tumor proliferation rate T/C,"[4]; Day 5, 10 mg/kg bid",19.67%
same,Tumor volume,"[4]; Day 5, 10 mg/kg bid",233.42 ± 49.88 mm^3
same,Relative tumor proliferation rate T/C,"[4]; Day 5, 20 mg/kg bid",13.62%
same,Tumor volume,"[4]; Day 5, 20 mg/kg bid",161.67 ± 45.52 mm^3
same,Relative tumor proliferation rate T/C,"[4]; Day 7, 2.5 mg/kg bid",36.00%
same,Tumor volume,"[4]; Day 7, 2.5 mg/kg bid",689.34 ± 174.38 mm^3
same,Relative tumor proliferation rate T/C,"[4]; Day 7, 5 mg/kg bid",29.86%
same,Tumor volume,"[4]; Day 7, 5 mg/kg bid",571.74 ± 105.62 mm^3
same,Relative tumor proliferation rate T/C,"[4]; Day 7, 10 mg/kg bid",15.44%
same,Tumor volume,"[4]; Day 7, 10 mg/kg bid",295.60 ± 218.67 mm^3
same,Relative tumor proliferation rate T/C,"[4]; Day 7, 20 mg/kg bid",9.61%
same,Tumor volume,"[4]; Day 7, 20 mg/kg bid",184.02 ± 76.71 mm^3
same,Relative tumor proliferation rate T/C,"[4]; Day 9, 2.5 mg/kg bid",34.48%
same,Tumor volume,"[4]; Day 9, 2.5 mg/kg bid",862.41 ± 275.13 mm^3
same,Relative tumor proliferation rate T/C,"[4]; Day 9, 5 mg/kg bid",24.33%
same,Tumor volume,"[4]; Day 9, 5 mg/kg bid",608.56 ± 193.58 mm^3
same,Relative tumor proliferation rate T/C,"[4]; Day 9, 10 mg/kg bid",11.02%
same,Tumor volume,"[4]; Day 9, 10 mg/kg bid",275.49 ± 176.66 mm^3
same,Relative tumor proliferation rate T/C,"[4]; Day 9, 20 mg/kg bid",6.67%
same,Tumor volume,"[4]; Day 9, 20 mg/kg bid",166.80 ± 119.15 mm^3
same,Relative tumor proliferation rate T/C,"[4]; Day 11, 2.5 mg/kg bid",31.05%
same,Tumor volume,"[4]; Day 11, 2.5 mg/kg bid",1079.47 ± 236.62 mm^3
same,Relative tumor proliferation rate T/C,"[4]; Day 11, 5 mg/kg bid",18.40%
same,Tumor volume,"[4]; Day 11, 5 mg/kg bid",639.67 ± 102.59 mm^3
same,Relative tumor proliferation rate T/C,"[4]; Day 11, 10 mg/kg bid",8.91%
same,Tumor volume,"[4]; Day 11, 10 mg/kg bid",309.67 ± 199.23 mm^3
same,Relative tumor proliferation rate T/C,"[4]; Day 11, 20 mg/kg bid",4.89%
same,Tumor volume,"[4]; Day 11, 20 mg/kg bid",169.93 ± 190.60 mm^3
same,TGI (tumor growth inhibition rate),[4]; 2.5 mg/kg bid,68.95%
same,TGI (tumor growth inhibition rate),[4]; 5 mg/kg bid,81.60%
same,TGI (tumor growth inhibition rate),[4]; 10 mg/kg bid,91.09%
same,TGI (tumor growth inhibition rate),[4]; 20 mg/kg bid,95.11%
same,Tumor inhibition rate (by tumor weight),[4]; 2.5 mg/kg bid,68.72%
same,Tumor weight,[4]; 2.5 mg/kg bid,0.54 ± 0.24 g
same,Tumor weight,[4]; 5 mg/kg bid,0.44 ± 0.13 g
same,Tumor inhibition rate (by tumor weight),"[4]; 5 mg/kg bid, 5 mg/kg",74.12%
same,Tumor inhibition rate (by tumor weight),[4]; 10 mg/kg bid,92.90%
same,Tumor weight,[4]; 10 mg/kg bid,0.12 ± 0.11 g
same,Tumor inhibition rate (by tumor weight),[4]; 20 mg/kg bid,95.75%
same,Tumor weight,[4]; 20 mg/kg bid,0.07 ± 0.06 g
same,Rate of change in body weight (%) of day 11 to day 0,[5]; 2.5 mg/kg bid,13.8%
same,Rate of change in body weight (%) of day 11 to day 0,[5]; 5 mg/kg bid,14.3%
same,Rate of change in body weight (%) of day 11 to day 0,[5]; 10 mg/kg bid,15.6%
same,Rate of change in body weight (%) of day 11 to day 0,[5]; 20 mg/kg bid,8.8%
same,Tolerance (body weight course),[5]; 2.5-20 mg/kg bid,good tolerance
same,Body weight,"[5]; Day 0, 2.5 mg/kg bid",23.6 ± 1.7 g
same,Body weight,"[5]; Day 0, 5 mg/kg bid",24.4 ± 1.9 g
same,Body weight,"[5]; Day 0, 10 mg/kg bid",23.6 ± 2.2 g
same,Body weight,"[5]; Day 0, 20 mg/kg bid",24.1 ± 2.3 g
same,Body weight,"[5]; Day 3, 2.5 mg/kg bid",24.6 ± 1.7 g
same,Body weight,"[5]; Day 3, 5 mg/kg bid",25.7 ± 1.9 g
same,Body weight,"[5]; Day 3, 10 mg/kg bid",24.9 ± 2.1 g
same,Body weight,"[5]; Day 3, 20 mg/kg bid",25.9 ± 2.8 g
same,Body weight,"[5]; Day 5, 2.5 mg/kg bid",25.5 ± 1.8 g
same,Body weight,"[5]; Day 5, 5 mg/kg bid",26.5 ± 1.9 g
same,Body weight,"[5]; Day 5, 10 mg/kg bid",26.3 ± 2.2 g
same,Body weight,"[5]; Day 5, 20 mg/kg bid",26.9 ± 2.9 g
same,Body weight,"[5]; Day 7, 2.5 mg/kg bid",26.1 ± 2.1 g
same,Body weight,"[5]; Day 7, 5 mg/kg bid",27.1 ± 1.8 g
same,Body weight,"[5]; Day 7, 10 mg/kg bid",26.7 ± 2.2 g
same,Body weight,"[5]; Day 7, 20 mg/kg bid",26.6 ± 3.2 g
same,Body weight,"[5]; Day 9, 2.5 mg/kg bid",26.5 ± 1.8 g
same,Body weight,"[5]; Day 9, 5 mg/kg bid",27.9 ± 1.9 g
same,Body weight,"[5]; Day 9, 10 mg/kg bid",26.8 ± 2.2 g
same,Body weight,"[5]; Day 9, 20 mg/kg bid",26.4 ± 3.5 g
same,Body weight,"[5]; Day 11, 2.5 mg/kg bid",26.8 ± 2.0 g
same,Body weight,"[5]; Day 11, 5 mg/kg bid",27.9 ± 2.6 g
same,Body weight,"[5]; Day 11, 10 mg/kg bid",27.3 ± 2.2 g
same,Body weight,"[5]; Day 11, 20 mg/kg bid",26.3 ± 3.9 g
